{
  "source": "patent US20250151740A1",
  "about": "“COMPOSITION FOR PREVENTING FUNGAL SPOILAGE IN POST-HARVEST FRUITS, VEGETABLES AND FLOWERS, METHOD AND USE THEREOF” (BIOBAB R&D, S.L., priority 2022, published 2025)",
  "key": {"[1]": {"system": "roses", "test": "In vivo test on roses with controlled release diffuser", "conditions": "diffuser with 50 μL, 20° C., darkness, approx. 7 days, versus control", "protocol": "Roses were brought directly from local market and sent to laboratory within 12 hours. The roses were divided into two equal groups and each group of roses was placed in a jar filled with tap water.\nOne group of roses were not exposed to any product (control) and another group of roses were exposed to a controlled release diffuser that contains the composition of the present invention. The controlled release diffuser was prepared using cellulose sheets (0.2 cm thick) in pieces (2×1 cm) and impregnated with 50 μL of pure β-cyclocitral (β-CC). These sheets were inserted into polyethylene bags (3×3 cm) that were subsequently heat-sealed.\nThe diffuser was place in the middle of jar from 20 cm to the surface of the petals. The two jars were covered with a plastic bag to keep inside a homogeneous atmosphere. jars were kept in an acclimated chamber (20° C., darkness) until the symptoms of fungi degradation (approx. 7 days)."}, "[2]": {"system": "Monilinia sp", "test": "Vapor-agar contact method, colony diameter", "type": "cell-based", "protocol": "(§1) The fungi grown on strawberries was isolated and cultured on potato dextrose agar (PDA, Condalab, Madrid Spain) The fungus was identified as Monilinia sp.\nAntifungal activity was determined by the vapor-agar contact method previously described by Sekiyama et al.. Fungi were cultured on potato dextrose agar (PDA) medium at 27° C. for a week. Fungal spores were then inoculated in the center of PDA plates which were aseptically placed in a chamber without lids.\nA controlled release diffuser as described in examples 1 and 2 was used. In this example 3 doses of β-cyclocitral (β-CC) were used: 20, 50 and 100 μL.\nThe diffusers were introduced into the chambers, 6 cm far from the PDA plate, followed by proper sealing. Incubation in the chambers was performed at 27° C. for 3-5 days. The inhibitory activity was evaluated by measuring the diameter of colonies formed by the tested fungal strains. The minimum inhibitory dose (MID) was defined as the lowest concentration (mg/L in air) of volatile compounds which inhibited colony formation of test fungi by 50%."}, "[3]": {"system": "cherries", "test": "In vivo test on cherries with controlled release diffuser", "conditions": "diffuser with 50 μl, 20° C., darkness, 6 days; control approximately 23%", "protocol": "Mature cherries were brought directly from Spanish farm and sent to laboratory within 24 hours. The cherries were divided into two equal groups and each group of cherries was placed in a plate.\nOne group of cherries were not exposed to any product (control) and another group of cherries were exposed to a controlled release diffuser that contains the composition of the present invention. The controlled release diffuser was prepared using cellulose sheets (0.2 cm thick) in pieces (2×1 cm) and impregnated with 50 μl of pure β-cyclocitral (β-CC). These sheets were inserted into polyethylene bags (3×3 cm) that were subsequently heat-sealed.\nThe diffuser was placed in the bottom of one plate. The two plates were covered with a plastic bag to keep inside a homogeneous atmosphere. Boxes were kept in an acclimated chamber (20° C., darkness) for 6 days.\nFinally, the cherries (control and exposed to the composition) were separate into two groups: fruits able to consume (not sign of fungi) and fruits not able to consume (signs of fungi)."}, "[4]": {"system": "Phytophtera nicotiana", "test": "Vapor-agar contact method (modified, three-compartment petri dish)", "type": "cell-based", "conditions": "50 μL; stated in text for all fungi of the example", "protocol": "(§2) Inhibitory effects on the spore germination of other filamentous fungi, specifically Phytophtera nicotiana, Taphrina deformans, Colletotrichum and Rhizopus sp., were examined by the vapor-agar contact method described in example 1 with a slight modification as follows. Fungi were cultured on potato dextrose agar (PDA) medium at 27° C. for a week. It was used petri dish with three compartment, one compartment was filled out with PDA and another two was kept empty,\n(§3) Fungal spores were then inoculated in the center of the compartment with PDA (40 mm diameter) and a small piece of cellulose with 50 μL of β-cyclocitral (β-CC) (composition of the present invention) was placed in one of the empty compartments. The plates were incubated at 27° C. for 3-5 days and the growth area of the mycelium and % of inhibition was measured."}, "[5]": {"system": "Colletotrichum", "test": "Vapor-agar contact method (modified, three-compartment petri dish)", "type": "cell-based", "conditions": "50 μL, 27° C., 3-5 days", "protocol": "as §2, §3"}, "[6]": {"system": "Rhizopus sp.", "test": "Vapor-agar contact method (modified, three-compartment petri dish)", "type": "cell-based", "conditions": "50 μL", "protocol": "as §2, §3"}, "[7]": {"system": "Taphrina deformans", "test": "Vapor-agar contact method (modified, three-compartment petri dish)", "type": "cell-based", "conditions": "50 μL, 27° C., 3-5 days", "protocol": "as §2, §3"}, "[8]": {"system": "strawberries", "test": "In vivo test on strawberries with controlled release diffuser", "conditions": "diffuser with 50 μL, 20° C., darkness, approx. 7 days, versus control; listed as composition of the present invention", "protocol": "Mature strawberries were brought directly from local market and sent to laboratory within 2 hours. The strawberries were divided into two equal groups and each group of strawberries was placed in a box.\nOne group of strawberries were not exposed to any product (control) and another group of strawberries were exposed to a controlled release diffuser that contains the composition of the present invention. The controlled release diffuser was prepared using cellulose sheets (0.2 cm thick) in pieces (2×1 cm) and impregnated with 50 μL of pure β-cyclocitral (β-CC). These sheets were inserted into polyethylene bags (3×3 cm) that were subsequently heat-sealed.\nThe diffuser was place in the middle of one box from 10 cm to the surface of strawberries. The two boxes were covered with a plastic bag to keep inside a homogeneous atmosphere. Boxes were kept in an acclimated chamber (20° C., darkness) until the symptoms of fungi degradation (approx. 7 days)."}, "[9]": {"system": "Monilinia sp.", "test": "Compartment PDA plate, β-CC and eucalyptol on cellulose, mycelium growth inhibition", "type": "cell-based", "conditions": "25 μl of the single substance, 27° C., 3-5 days", "protocol": "as §1\nFungal spores were then inoculated in the center of the compartment with PDA (40 mm diameter) and a small piece of cellulose with different volume of β-cyclocitral (β-CC) (composition of the present invention) and Eucalyptol was placed in one of the empty compartments. The plates were incubated at 27° C. for 3-5 days and the growth area of the mycelium and % of inhibition was measured."}},
  "note": "Entries after “also recorded” stand apart in the source; their conditions may differ.",
  "data": [
    {"compound": "CC1=C(C=O)C(C)(C)CCC1", "note": "[β-CC, beta-cyclocitral]", "values": [
      {"measurement": "spots on roses", "setting": "[1]", "result": "less spots"},
      {"measurement": "inhibition", "setting": "[2]; concentrations higher than 50 μL", "result": "more than 60%"},
      {"measurement": "inhibition", "setting": "[2]; concentrations of 100 μL", "result": "80-100%"},
      {"measurement": "doses that inhibit 50% of mycelium fungi (MID)", "setting": "[2]; from linear model y=1.01X+4.2047, doses 20, 50 and 100 μL, 27° C., 3-5 days", "result": 45.34, "unit": "µL"},
      {"measurement": "cherries suitable for consumption", "setting": "[3]", "result": "approximately 65%"},
      {"measurement": "growth inhibition", "setting": "[4]", "result": 100, "unit": "%"},
      {"measurement": "% Inhibition", "setting": "[5]", "result": 99.00, "unit": "%"},
      {"measurement": "Growth area", "setting": "[5]", "result": 6.15, "unit": "cm^2"},
      {"measurement": "% Inhibition", "setting": "[6]; 27° C., 3-5 days", "result": 62.55, "unit": "%"},
      {"measurement": "Growth area", "setting": "[6]; 27° C., 3-5 days", "result": 1.45, "unit": "cm^2"},
      {"measurement": "effect on spore germination (FIG. 3)", "setting": "[6]; versus control", "result": "inhibitory effect on the spore germination"},
      {"measurement": "% Inhibition", "setting": "[7]", "result": 100, "unit": "%"},
      {"measurement": "Growth area", "setting": "[7]", "result": 0, "unit": "cm^2"},
      {"measurement": "rot / fungi contamination of strawberries", "setting": "[8]", "result": "less fungi contamination; also recorded: less rot"},
      {"measurement": "% Inhibition", "setting": "[9]", "result": 78.22, "unit": "%"}
    ]}
  ]
}
